Laboratory results published in patent publication US20230190689A1, “METHODS AND COMPOSITIONS FOR INDUCING BROWN ADIPOGENESIS” (ENERGESIS PHARMACEUTICALS, INC., priority 2020, published 2023).
Counter-ions that a name gives are not always drawn.

What was measured:
[1] = test system: CD34+ brown adipocyte progenitor cells; assay: Multiplexed TaqMan real-time PCR of UCP1 and PPARγ2 mRNA (normalized to cyclophilin A) to quantify differentiation of CD34+ cells into brown adipocytes; format: cell-based, human; conditions: in vitro; first screen at 10 μM, actives retested at 1 nM to 50 μM
Description: A robust method, previously disclosed, was used for detection of CD34+ cell differentiation into brown adipocytes by simultaneously quantifying mRNA species corresponding to the brown adipocyte marker UCP1, the adipocyte marker PPARγ2, and the “housekeeping” gene cyclophilin A which was used as the internal control.
This method permits analysis of a large number of samples to identify agents that enhance the differentiation of CD34+ cells into brown adipocytes. When differentiated into brown adipocytes, CD34+ cells express much higher levels of UCP1 and PPARγ2 mRNA for a given level of cyclophilin A. UCP1 and PPARγ2 mRNA levels normalized to cyclophilin A mRNA levels give an indication of the level of differentiation of the CD34+ cells into brown adipocytes, independent of the total number of cells in the sample.
Quantification of UCP1, PPARγ2 and cyclophilin A mRNA by multiplexed TaqMan real-time PCR was thus used to quantify differentiation of the CD34+ cells into brown adipocytes.
UCP1 is the key protein in brown adipocytes responsible for uncoupled respiration and is also highly specific for brown adipocyte differentiation. It is expressed exclusively by fully differentiated brown adipocytes and not by the CD34+ progenitor cells. We used a real-time semi-quantitative RT PCR-based assay for detection of UCP1 expression, in order to screen for brown adipocyte recruiters. […] The assay has the added advantage of allowing light microscopic visualization of the distinct morphological changes accompanying differentiation into brown adipocytes. This serves as further confirmation of differentiation.
(§1) Cells were seeded at 10,000 per cm^2 (48-well tissue culture, Chemglass #CLS-3500-048), cultured until confluency (1-4 days) at 37° C. in Endothelial cell growth medium-2 (EGM2) (BulletKit growth medium, Lonza #CC-3162) and until differentiation (6-12 more days). After 1-4 days in EGM2 media the cells were incubated with test agents (or positive controls) for 2-3 days (from day −3 or −2 to day 0). Rosiglitazone (1 μM) and rhBMP7 (6.3 nM) were used as reference agents (positive controls). Then (on day 0) the culture media (containing the test agents or positive controls) was removed, and minimal adipogenic medium (MDM) was added and the cells were left to differentiate of 6-12 days. The MDM media is a modification of the adipogenic media described by Rodriguez et al., and contains: DMEM/Ham's F-12 50/50 Mix (3.151 g/1, 17.5 mM D-glucose, 3.651 g/l L-glutamine) (Cellgro #10-090-CV), 5 μg/ml (0.86 μM) insulin, 1 μM dexamethasone, 100 μM 3-isobutyl-1-methylxanthine, 0.2 nM 3,3′,5-triiodo-L-thyronine, 10 μg/ml (127 nM) transferrin, and 1% penicillin-streptomycin. Adipocyte scores were determined by light microscopy and defined as the number of cells, on a per well basis, that contain multilocular lipid droplets, at the end of the differentiation of the cells, approximately 6 to 12 days following the end of compound treatment and switch into MDM media.
Total RNA was prepared from cells using PureLink RNA Isolation Kit (Invitrogen #12183-016). Alternatively, cells were simply lyzed by freezing (−80° C.). First strand cDNA were synthesized using the High Capacity cDNA Reverse Transcription kit (Applied Biosystems, Foster City, Calif.) and random primers.
Quantitative real-time PCR was performed using an Applied Biosystems StepOnePlus™ instrument, TaqMan Gene Expression Master Mix (Applied Biosystems #4369016), and custom TaqMan gene expression probes and primers for human uncoupling protein-1 “UCP1” (GenBank NM_021833) and for human peptidylprolyl isomerase A “cyclophilin A” (GenBank NM_021130).
Cyclophilin A was used as a control to account for any variations due to the efficiency of reverse transcription. Arbitrary units were determined by normalizing target mRNA levels to cyclophilin A mRNA levels (based on Cts).

[2] = test system: CD34+ cells; assay: Light microscopy of CD34+ cells for brown adipocyte differentiation (multilocular lipid-containing cells); format: cell-based, human; conditions: CD34+ cells 6 days following the end of compound treatment and switch into MDM media
Procedure: as §1
Pictures of cells were taken using a hand-held digital camera (Nikon Coolpix 950) and inverted microscope (Nikon TMS) used for cell culture observations; images were optimized using Paint.net version 4.0 functions for Auto-Level Brightness and Contrast.

[3] = test system: CD34+ cells; assay: Quantification of UCP1 protein by fluorescence immunohistochemistry (IHC); format: cell-based, human
Procedure: Culturing and differentiation of CD34+ cells into brown adipocytes were performed using adipogenic differentiation medium lacking (Minimal Differentiation Medium, MDM) or containing 1 μM rosiglitazone (Reference Differentiation Medium, RDM). After 15 days of differentiation cells were fixed with 4% Paraformaldehyde PBS pH 7.4, and incubated with a UCP1 antibody (Abcam ab23841) and Alexafluor 488 goat anti-rabbit antibody to quantify relative UCP1 levels (green) according to standard protocols. Prior to fixation of cells, nuclei were labeled with 5 μM DAPI (blue) for 10 minutes. Each treatment condition was evaluated in triplicate in a 96-well plate corresponding to approximately 360-480 cells for each data point in total. The InCell 1000 Developer Toolbox software was used to develop an automated cell detection script to measure UCP1 signal intensity, using the nuclei and cytoplasm detection algorithms. As a readout, total intensity of UCP1 signal within the cell was used, normalized to cell number.

[4] = test system: DIO mice; assay: DIO mouse study of metabolic health, once-daily oral gavage for 28 to 56 days; format: in vivo, C57Bl/6 mice; conditions: oral gavage once a day, bezafibrate 60 mg/kg, oxaprozin 50 mg/kg, vs vehicle
Procedure: Obesity and insulin resistance, an early stage in the development of type 2 diabetes (or pre-diabetes), was induced in C57Bl/6 mice by feeding the mice with a high fat diet (Research diet, Cat #D12492, 60/a fat kcal) for 12 weeks starting at 6 weeks of age. The mice were maintained at 22-23° C. with abundant bedding material, maintaining the animals in an environmental temperature close to their thermoneutrality, starting 2 weeks prior to the dosing period and for the full dosing period with a 12 h/12 h light/dark cycle.
Mice were dosed once per day by oral gavage (200 μl per mouse), first for 3 days with the vehicle (PBS+0.5% CMC+0.1% Tween-80) as acclimation for running into the study, then with either vehicle alone or testing material dissolved in the vehicle for […] (4 to 8 weeks).
Body weight was recorded every 3 days, body composition (fat and lean mass with EchoMRI) was assessed at the end of the study (University of Cincinnati Mouse Metabolic Phenotyping Center), blood glucose level (measured with a glucometer) was monitored 3-5 days before (baseline) and at the end of the dosing period.
At the end of the dosing period, animals were fasted for 6 hours and euthanized by CO2, blood was collected, and plasma was isolated and saved at −20° C. Plasma glucose, insulin and leptin levels were assessed 3-5 days before (baseline) and at the end of the dosing period (mice were fasted for 6 hours before all plasma collection) (University of Cincinnati Mouse Metabolic Phenotyping Center). Insulin sensitivity was determined using the homeostasis model assessment of insulin resistance (HOMA-IR). HOMA-IR=(plasma insulin [microIU/ml] x plasma glucose [mM])/22.5.
The mice were maintained on a high fat diet (60% calories from fat) throughout the study. An overnight fast was performed the last night of the study in preparation for glucose tolerance testing.

Compound	differentiation of brown adipocyte progenitor cells into brown adipocytes, as indicated by expression of UCP1 and PPARγ2 [1]	agents identified by quantification of UCP1 protein by fluorescence IHC [3]	other results
COc1ccc2c(c1)c(CC(=O)O)c(C)n2C(=O)c1ccc(Cl)cc1 [Indomethacin]	promote the differentiation of brown adipocyte progenitor cells into brown adipocytes		
COc1ccc2c(c1)C(=O)N(CCc1ccc(S(=O)(=O)NC(=O)NC3CCCCC3)cc1)C(=O)C2(C)C [gliquidone, Gliquidone]	promote the differentiation of brown adipocyte progenitor cells into brown adipocytes		brown adipocyte formation by light microscopy [2]: promote brown adipocyte formation
N=C(N)NC(=O)Cc1c(Cl)cccc1Cl [Guanfacine hydrochloride]		identified using this technique	
Cc1ccc(Cl)c(Nc2ccccc2C(=O)O)c1Cl [Meclofenamate]	promote the differentiation of brown adipocyte progenitor cells into brown adipocytes		
CC(C(=O)O)c1ccc2c(c1)CC(=O)c1ccccc1S2 (stereo not shown) [zaltoprofen, 2-(6-Oxo-5H-benzo[b][1]benzothiepin-3-yl)propanoic acid]	promote the differentiation of brown adipocyte progenitor cells into brown adipocytes		brown adipocyte formation by light microscopy [2]: promote brown adipocyte formation
NC(N)=Nc1nc(CSCCC(N)=NS(N)(=O)=O)cs1 [Famotidine]		identified using this technique	
CCCCC[C@H](O)/C=C/[C@H]1[C@H](O)CC(=O)[C@@H]1CCCCCCC(=O)O [alprostadil, Alprostadil]	promote the differentiation of brown adipocyte progenitor cells into brown adipocytes		brown adipocyte formation by light microscopy [2]: promote brown adipocyte formation
COC(=O)[C@H]1[C@H]2C[C@@H]3c4[nH]c5cc(OC)ccc5c4CCN3C[C@H]2C[C@@H](OC(=O)c2cc(OC)c(OC)c(OC)c2)[C@@H]1OC [Reserpine]		identified using this technique	
CCN(CC)CCNC(=O)c1cc(S(C)(=O)=O)ccc1OC [Tiapride hydrochloride]		identified using this technique	
CN(C)C(=N)N=C(N)N [Metformin]		identified using this technique	
O=C(O)Cc1ccccc1Nc1c(Cl)cccc1Cl [Diclofenac]	promote the differentiation of brown adipocyte progenitor cells into brown adipocytes		
Cc1cccc(Nc2ccccc2C(=O)O)c1C [Mefenamic acid]	promote the differentiation of brown adipocyte progenitor cells into brown adipocytes		
O=C(O)CCc1nc(-c2ccccc2)c(-c2ccccc2)o1 [oxaprozin, 3-(4,5-Diphenyloxazol-2-yl)propionic acid]	promote the differentiation of brown adipocyte progenitor cells into brown adipocytes		body fat mass ([4]; MRI): significant decreases; body weight [4]: significant decreases; glycemia [4]: significant decreases; plasma insulin [4]: significant decreases; plasma leptin [4]: significant decreases
CCOC(=O)Oc1c(OC)cc(C(=O)O[C@@H]2C[C@@H]3CN4CCc5c([nH]c6cc(OC)ccc56)[C@H]4C[C@@H]3[C@H](C(=O)OC)[C@H]2OC)cc1OC [Syrosingopine]		identified using this technique	
O=C(O)c1cccnc1Nc1cccc(C(F)(F)F)c1 [Niflumic acid]	promote the differentiation of brown adipocyte progenitor cells into brown adipocytes		
COc1ccc2c(c1)c(CC(=O)OCC(=O)O)c(C)n2C(=O)c1ccc(Cl)cc1 [Acemethacin]	promote the differentiation of brown adipocyte progenitor cells into brown adipocytes		
CCSc1ccc2c(c1)N(CCCN1CCN(C)CC1)c1ccccc1S2 [Thiethylperazine]		identified using this technique	
O=C(CCCN1CCC2(CC1)C(=O)NCN2c1ccccc1)c1ccc(F)cc1 [Spiperone]		identified using this technique	
CCC1=C(C)CN(C(=O)NCCc2ccc(S(=O)(=O)NC(=O)N[C@H]3CC[C@H](C)CC3)cc2)C1=O [Glimepiride]	promote the differentiation of brown adipocyte progenitor cells into brown adipocytes		
COc1cc2c(c(OC)c1OC)-c1ccc(OC)c(=O)cc1[C@@H](NC(C)=O)CC2 [Colchicine]		identified using this technique	
